As a reminder, the % inhibition is the change of the read-out against control, counted positive when it falls. Low readings indicate a weak effect, high ones a strong effect.

The test system of the data set is human PKK mRNA. Kind of data set: Antisense inhibition of human PKK mRNA in HepaRG cells, 5,000 nM (Example 2). Format: cell-based. The essentials:
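qRT-PCR (RTS3454) read-out, RIBOGREEN-normalized; % inhibition vs untreated cells. HepaRG, 20,000 cells/well, electroporation, 5,000 nM ASO, ~24 h.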

Setting [1] is: Table 9 experiment, HepaRG cells, 20,000 cells per well, electroporation with 5,000 nM antisense oligonucleotide, approx. 24 hours, PKK mRNA by RT-PCR (RTS3454), relative to untreated control cells.
Where [2] appears, read: Table 10 experiment, HepaRG cells, 20,000 cells per well, electroporation with 5,000 nM antisense oligonucleotide, approx. 24 hours, PKK mRNA by RT-PCR (RTS3454), relative to untreated control cells.
[3] abbreviates: Table 8, HepaRG cells, electroporation with 5,000 nM antisense oligonucleotide, approx. 24 hours, PKK mRNA by RT-PCR (RTS3454), relative to untreated control cells.
[4] abbreviates: HepaRG cells, electroporation with 5,000 nM antisense oligonucleotide, approximately 24 hours, PKK mRNA by RT-PCR (RTS3454), relative to untreated control cells, Table 5 experiment.
The mark [5] stands for this setting: HepaRG cells, electroporation, 5,000 nM antisense oligonucleotide, approx. 24 hours, primer probe set RTS3454, relative to untreated control cells, Table 11.

Strand notation (5' to 3'): a small letter for the sugar, then the base; units joined by * are phosphorothioate-linked, units joined directly phosphodiester-linked; [ ] holds rarer units or linkages, { } end groups; capitals alone tell only the bases. e = 2'-O-(2-methoxyethyl) (MOE); [5mC] = 5-methylcytosine; d = 2'-deoxy (DNA)

Consider “547596 (antisense eT*eA*e[5mC]*eT*eA*dG*dT*dT*dT*d[5mC]*d[5mC]*dT*dA*dT*dA*eA*e[5mC]*eT*eA*eT) [compound 547596]”, for which the “% inhibition” value (human PKK mRNA in HepaRG cells, 5-10-5 gapmers, Table 14) is recorded as 14%. In the case of “547573 (eT*eA*eA*eG*e[5mC]*dA*dA*dG*dG*d[5mC]*d[5mC]*dT*dA*dT*dG*eT*eG*eT*eG*eG; antisense) [compound 547573]”, for the setting “Table 13, human PKK mRNA in HepaRG cells, 5-10-5 gapmers”, the “% inhibition” value stood at 2%. As to “546324 (antisense eG*eG*eT*eA*eT*dA*dA*dA*dT*dT*dG*dT*dG*d[5mC]*dT*eT*eG*eT*eG*eT) [compound 546324]”, the “% inhibition” value is given as 73% under setting [1] and 82% under setting [2].

“546296 (antisense eG*eA*eA*eG*e[5mC]*d[5mC]*d[5mC]*dA*dT*d[5mC]*dA*dA*dA*dG*d[5mC]*eA*eG*eT*eG*eG) [compound 546296]”: the “% inhibition” value under setting [3] is recorded as 27%. For the substance “547422 (eA*e[5mC]*e[5mC]*eA*eT*d[5mC]*d[5mC]*dA*dT*dA*dG*dA*dT*dA*dA*eT*e[5mC]*eT*eT*eA; antisense) [compound 547422]”, the “% inhibition” value under setting [3] was found to be 70%.

With “546320 (antisense eG*eG*eT*eA*eG*dG*d[5mC]*dA*dT*dA*dT*dT*dG*dG*dT*eT*eT*eT*eT*eG) [compound 546320]”, the “% inhibition” value under setting [1] is recorded as 72% and the “% inhibition” value under setting [2] is reported as 69%. For the substance “546276 (eT*eG*eG*eA*eG*dA*dA*d[5mC]*d[5mC]*dA*dT*d[5mC]*d[5mC]*dA*dT*eA*eG*eA*eT*eA; antisense) [compound 546276]”, under setting [3], the “% inhibition” value worked out at 74%. Regarding “546503 (eG*eT*eG*eA*eT*dG*d[5mC]*dG*dA*dT*dT*dT*dT*d[5mC]*d[5mC]*eA*eT*eG*e[5mC]*eA; antisense) [compound 546503]”, where the note is “HepaRG cells, electroporation, 5,000 nM antisense oligonucleotide, approx. 24 hours, primer probe set RTS3454, relative to untreated control cells, Table 12”, the “% inhibition” value is recorded as 53%. As for “547313 (antisense eG*eT*eT*e[5mC]*eG*dA*dT*dG*dT*dA*d[5mC]*dT*dT*dT*dT*eG*eG*e[5mC]*eA*eG) [compound 547313]”, under setting [4], the “% inhibition” value was found to be 73%. For the substance “546364 (antisense eG*eG*eA*e[5mC]*eT*dG*d[5mC]*dT*dT*d[5mC]*dT*d[5mC]*dA*dT*dG*e[5mC]*eT*eG*eG*eT) [compound 546364]”, the “% inhibition” value under setting [5] is on record as 61%.

In the case of “546213 (antisense e[5mC]*e[5mC]*e[5mC]*eT*eG*dG*d[5mC]*dA*dA*d[5mC]*dA*dT*d[5mC]*d[5mC]*dA*e[5mC]*eA*eT*e[5mC]*eT) [compound 546213]”, the “% inhibition” value (HepaRG cells, electroporation with 5,000 nM antisense oligonucleotide, approximately 24 hours, PKK mRNA by RT-PCR (RTS3454), relative to untreated control cells, Table 6 experiment) came to 82%. “546137 (eA*eT*eT*eG*e[5mC]*dT*dT*d[5mC]*dT*dT*dG*dG*dA*dG*dG*eT*eG*eA*eG*eT; antisense) [compound 546137]”: under setting [4], the “% inhibition” value is given as 76%. Regarding “546326 (antisense e[5mC]*e[5mC]*e[5mC]*eA*eA*d[5mC]*dA*dG*dT*dT*dG*dG*dT*dA*dT*eA*eA*eA*eT*eT) [compound 546326]”, the “% inhibition” value came to 62% under setting [1] and 64% under setting [2]. Regarding “547653 (eA*eT*e[5mC]*eA*e[5mC]*dT*dG*dT*dA*d[5mC]*d[5mC]*dT*dA*dT*dA*eA*e[5mC]*eA*eG*eT; antisense) [compound 547653]”, the “% inhibition” value (human PKK mRNA, HepaRG cells, 5-10-5 motif oligonucleotides targeting SEQ ID NO: 1 and 10) is 57%. As to “547725 (eA*eT*eT*eG*eG*dT*dG*dG*dT*dG*dG*dG*dA*dT*dT*eG*eG*eT*eG*eG; antisense) [compound 547725]”, the “% inhibition” value (HepaRG cells, 5,000 nM antisense oligonucleotide, 5-10-5 gapmers, Table 17) came out at 26%. Regarding “546165 (e[5mC]*eA*eT*eT*eG*dA*dT*dT*dG*dA*dA*d[5mC]*dT*dT*dG*e[5mC]*eT*eG*eG*eA; antisense) [compound 546165]”, the “% inhibition” value under setting [4] is 71%. Consider “547507 (antisense e[5mC]*eA*eG*eG*e[5mC]*dT*d[5mC]*dA*dG*dA*dA*dT*dT*dT*dG*eA*e[5mC]*eT*eT*eG) [compound 547507]”, for which the “% inhibition” value under setting [5] worked out at 56%. Turning to “547419 (e[5mC]*eT*eT*eA*eA*dG*dA*dA*dA*d[5mC]*dA*d[5mC]*dT*dT*dA*e[5mC]*eA*e[5mC]*eT*eT; antisense) [compound 547419]”, the “% inhibition” value under setting [3] came to 51%.

These data come from patent publication US11840686B2, “Modulation of prekallikrein (PKK) expression” (Ionis Pharmaceuticals, Inc., priority 2013, dated 2023).
